Test results taken from publication PMC3865801 (Journal of Medicinal Chemistry, 2013).

How the values were obtained:
[1] = target: T1, perforin delivered by primary human natural killer cells to HeLa cells (Homo sapiens, UniProt P14222); experiment: Time-lapse microscopy of the cytotoxic immunological synapse (primary NK cells and HeLa targets); type: cell-based; details: 20 μM, primary human NK cells, HeLa targets
T1 construct: degranulation and the release of perforin into the synaptic cleft; endogenous in cells; host or cells: primary human NK cells from peripheral blood of four donors (HeLa target cells)
T1 sequence (P14222 22-555): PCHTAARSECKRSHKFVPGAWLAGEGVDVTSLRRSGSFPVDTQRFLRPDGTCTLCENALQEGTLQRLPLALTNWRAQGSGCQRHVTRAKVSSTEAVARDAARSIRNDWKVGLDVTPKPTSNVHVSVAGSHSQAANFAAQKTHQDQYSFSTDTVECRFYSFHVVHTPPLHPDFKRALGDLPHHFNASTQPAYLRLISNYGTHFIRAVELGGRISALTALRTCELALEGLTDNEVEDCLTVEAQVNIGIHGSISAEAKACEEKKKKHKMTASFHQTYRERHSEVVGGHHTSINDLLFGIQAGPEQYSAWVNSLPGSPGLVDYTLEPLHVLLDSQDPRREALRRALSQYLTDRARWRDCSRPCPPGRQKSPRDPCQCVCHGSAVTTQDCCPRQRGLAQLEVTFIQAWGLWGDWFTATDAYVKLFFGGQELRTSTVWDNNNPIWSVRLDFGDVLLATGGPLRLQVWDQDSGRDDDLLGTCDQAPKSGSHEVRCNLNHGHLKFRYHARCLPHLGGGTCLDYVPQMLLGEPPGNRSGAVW
Procedure: Time-lapse microscopy and image analysis were performed as described previously.[42] In brief, primary human natural killer cells were isolated from the peripheral blood of four unrelated donors using negative selection, as described in the above reference. […] All experiments were performed at 37 °C/5% CO2.

[2] = Plasma pharmacokinetics in male CD-1 mice; type: in vivo, mouse; details: 5 mg/kg iv; for AUC0–∞ / Cmax / T1/2: plasma
Procedure: Blood was collected by cardiac puncture at 5 and 30 min and 1, 2, 4, and 6 h postdose in ice-cold K2-EDTA tubes. Plasma samples were separated by centrifuging at 4000g for 8 min and stored at −80 °C until analysis. Frozen plasma was thawed on wet ice on the day of analysis. […] A Zorbax SB-C18, 50 mm × 2.1 mm 5 μm column was used at a 0.5 mL/min flow rate, and elution was with a gradient of organic phase (A), acetonitrile in water (80:20 v/v) containing 0.01% formic acid and aqueous phase (B), water containing 0.01% formic acid. LC–MS/MS analysis was carried out using multiple reaction monitoring. […] Plasma samples from 5 min, 30 min, and 1 h were diluted with control mouse plasma (1:20 for 5 min, 1:10 for 30 min and 1 h samples) to fit within this range. The resultant concentration vs time data were fitted (using Phoenix WinNonlin 6.2; Pharsight Corporation, St. Louis, MO) to calculate pharmacokinetic parameters including half-life (T1/2), maximum concentration (Cmax), area under the curve (AUC0–∞), volume of distribution (V), and clearance (Cl).

KHYG-1 NK cells = experiment: Toxicity to KHYG-1 NK cells (Trypan blue exclusion); type: cell-based, human; details: 5 μM, viability after 24 h
Procedure: The toxicity assay was carried out in exactly the same manner as the killing assay above, but instead of adding the labeled K562 target cells, 100 μL of RPMI 0.1% BSA was added. Cells were incubated for 4 h at 37 °C and then washed ×3 in RPMI + 0.1% BSA. […] Trypan blue was added to each well. Viable (clear) cells and total (clear + blue) cells were counted, and the percentage of viable cells was calculated compared to DMSO treated cell control (% viability).

[3] = Solubility in SPR running buffer; type: physicochemical; details: HEPES buffered saline running buffer with 5% DMSO; sodium salts, HEPES running buffer containing 5% DMSO
Procedure: Binding experiments with surface immobilized wild-type perforin monomers on a S-series CM5 sensor chip (GE Healthcare Life Sciences) were carried out using a Biacore T200 SPR machine (GE Healthcare Life Sciences). […] The initial and running buffers were made from a 10× stock solution of HEPES buffered saline (HBS). 10× HBS (50 mL) was diluted to 500 mL with water and filtered through a 0.22 μm filter (initial buffer). This initial buffer (380 mL) was added to DMSO (20 mL) to prepare the 5% DMSO running buffer. Stock solutions (2.5 mM) of compound were prepared in 100% DMSO. […] A solvent correction was run before and after the injections to account for differences in DMSO concentrations between buffer and analyte solutions.

Structure (SMILES) | synapses in which formation of the perforin pore was blocked [1] | killer cells that delivered functional perforin to the target ([1]; DMSO control: every cell) | Cl (clearance) [2] | V (volume of distribution) [2] | AUC0–∞ [2] | Cmax [2] | T1/2 [2] | KHYG-1 viability (KHYG-1 NK cells) | solubility [3]
O=C1NC(=S)N/C1=C/c1ccc(-c2ccc3c(c2)CCNC3=O)s1 [compound 167] | 40% | 60% | 5237 mL h^–1 kg^–1 | 2.75 L/kg | 955 ng·h/mL | 4513 ng/mL | 1.30 h | lack of NK toxicity | ≤ 2.5 µM
CC1c2cc(-c3ccc(/C=C4/NC(=S)NC4=O)s3)ccc2C(=O)N1C (stereo not drawn) [compound 135, (E,Z)-2,3-Dimethyl-5-(5-((5-oxo-2-thioxoimidazolidin-4-ylidene)methyl)thiophen-2-yl)isoindolin-1-one] |  |  | 4346 mL h^–1 kg^–1 | 1.478 L/kg | 1151 ng·h/mL | 4488 ng/mL | 1.15 h |  | ≤ 2.5 µM
